Results taken from ChEMBL document CHEMBL1157037, “Synthesis and in vitro antiproliferative activities of quinoline derivatives” (Eur J Med Chem, 2010).

Legend:
Format in all cases: functional, cell-based
PA-1 = experiment: Antiproliferative activity against human PA1 cells after 48 hrs by resazurin reduction assay; details: PA-1, 48 h
[1] = Antiproliferative activity against human fibroblast cells after 48 hrs by resazurin reduction assay
MCF7 = experiment: Antiproliferative activity against human MCF7 cells after 48 hrs by resazurin reduction assay; details: MCF7, 48 h

Structure (SMILES) | IC50 (PA-1) [µM] | IC50 [1] [µM] | IC50 (MCF7) [µM]
COc1ccc2ccc(-c3cc4ccccc4nc3OC)cc2n1 | 36 | 54 | > 100
CCOc1ccc2ccc(-c3cc4ccccc4nc3OCC)cc2n1 | 37 | 37 | > 100
CCOc1ccc2ccc(-c3cc4ccc(-c5cc6ccccc6nc5OCC)cc4nc3OCC)cc2n1 | 50 | > 100 | > 100
